Legend:
[1] = Ratio of IC50 against rat liver DHFR and Pneumocystis carinii DHFR (IC50rl/IC50pc)
[2] = Ratio of the IC50 against rat liver DHFR and Toxoplasma gondii DHFR (IC50rl/IC50tg)
A253 cell line = assay: Growth inhibition of human squamous carcinoma cell lines following continuous (120 hours) exposure to MTX and compound A253 cell line; format: functional, cell-based; settings: A253, 120 h
CCRF-CEM [3] = assay: Compound was evaluated for the growth inhibition of R2, a CCRF-CEM subline resistant to MTX as a result of deffective uptake.; format: functional, cell-based; settings: Homo sapiens
CCRF-CEM [4] = assay: Compound was evaluated for the growth inhibition of parental CCRF-CEM; format: functional, cell-based; settings: Homo sapiens
Dihydrofolate reductase [5] = molecular target: T1, Dihydrofolate reductase (Pneumocystis carinii, UniProt P16184)
T1 sequence (P16184 whole entry): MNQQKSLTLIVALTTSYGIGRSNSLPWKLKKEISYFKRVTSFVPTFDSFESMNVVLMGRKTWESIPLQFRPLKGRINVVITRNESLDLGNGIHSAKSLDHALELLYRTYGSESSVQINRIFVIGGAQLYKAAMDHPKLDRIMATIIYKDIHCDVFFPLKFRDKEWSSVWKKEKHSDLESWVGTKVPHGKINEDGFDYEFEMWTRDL
Description: Inhibition of Pneumocystis carinii (pc) Dihydrofolate reductase

[6] = Relative Vmax of compound was measured.; format: ADME
[7] = molecular target: T2, Bifunctional dihydrofolate reductase-thymidylate synthase (Toxoplasma gondii, UniProt Q07422)
T2 sequence (Q07422 whole entry): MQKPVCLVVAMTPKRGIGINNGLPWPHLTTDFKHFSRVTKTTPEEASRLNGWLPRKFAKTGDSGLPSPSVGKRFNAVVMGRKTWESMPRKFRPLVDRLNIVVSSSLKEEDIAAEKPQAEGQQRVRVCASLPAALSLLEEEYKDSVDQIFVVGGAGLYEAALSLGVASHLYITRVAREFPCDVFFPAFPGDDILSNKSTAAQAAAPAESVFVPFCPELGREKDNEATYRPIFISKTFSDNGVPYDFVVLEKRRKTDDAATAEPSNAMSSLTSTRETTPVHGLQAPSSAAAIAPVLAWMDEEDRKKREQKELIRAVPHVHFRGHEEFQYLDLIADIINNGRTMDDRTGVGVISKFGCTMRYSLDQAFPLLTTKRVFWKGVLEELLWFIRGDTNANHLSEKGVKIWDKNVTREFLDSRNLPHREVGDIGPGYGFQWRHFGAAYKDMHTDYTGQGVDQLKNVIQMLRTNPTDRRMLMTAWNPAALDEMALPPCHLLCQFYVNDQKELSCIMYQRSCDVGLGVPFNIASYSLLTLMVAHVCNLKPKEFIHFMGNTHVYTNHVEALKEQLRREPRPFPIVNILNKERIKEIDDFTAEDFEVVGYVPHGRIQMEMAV
Description: Inhibition of Toxoplasma gondii (tc) Dihydrofolate reductase

CCRF-CEM [8] = assay: Compound was evaluated for the growth inhibition of R30dm, a CCRF-CEM subline resistant to intermittent MTX exposure solely as a result of decreased polyglutamylation.; format: functional, cell-based; settings: Homo sapiens
FaDu = assay: Growth inhibition of human squamous carcinoma cell lines following continuous (120 hours) exposure to MTX and compound FaDu cell line; format: functional, cell-based
Dihydrofolate reductase [9] = molecular target: T3, Dihydrofolate reductase (Rattus norvegicus, UniProt Q920D2)
T3 sequence (Q920D2 whole entry): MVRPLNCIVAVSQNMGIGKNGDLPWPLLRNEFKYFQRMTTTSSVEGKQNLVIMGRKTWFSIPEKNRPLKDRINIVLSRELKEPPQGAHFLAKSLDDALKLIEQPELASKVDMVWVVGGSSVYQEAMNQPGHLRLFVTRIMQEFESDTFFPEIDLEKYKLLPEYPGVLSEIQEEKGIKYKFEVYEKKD
Description: Inhibition of rat liver Dihydrofolate reductase

[10] = molecular target: Folylpolyglutamate synthase, mitochondrial (Homo sapiens) (UniProt Q05932); assay: Inhibitory activity of compound was measured for CCRF-CEM human leukemia cell Folyl-polyglutamate synthase
[11] = compound: Nc1nc(N)c2nc(CNc3ccc(C(=O)N[C@@H](CCC(=O)O)C(=O)O)cc3)cnc2n1; assay: Inhibitory activity of compound was measured for CCRF-CEM human leukemia cell Folyl-polyglutamate synthase

For `Nc1nc(N)c2c(CNc3ccccc3)c[nH]c2n1`, the Selectivity ratio [1] was < 1 and the Selectivity ratio [2] was > 65.

`Nc1nc(N)c2c(CNc3ccc(C(=O)NC(CCC(=O)O)C(=O)O)cc3)c[nH]c2n1` (stereo not given) gave an EC50 (A253 cell line) of 0.046 µM, an EC50 (CCRF-CEM [3]) of 1.65 µM and an EC50 (CCRF-CEM [4]) of 0.0128 µM. It also gave an IC50 (Dihydrofolate reductase [5]) of 0.038 µM, a Vmax [6] of 0.72 and an IC50 [7] of 0.21 µM. The EC50 (CCRF-CEM [8]) was 0.036 µM and the EC50 (FaDu) was 0.022 µM.

For `CCOc1ccc(OCC)c(NCc2c[nH]c3nc(N)nc(N)c23)c1`, the IC50 (Dihydrofolate reductase [5]) was 21 µM.

For `COc1cc(NCc2c[nH]c3nc(N)nc(N)c23)cc(OC)c1OC`, the Selectivity ratio [1] was < 2.4, the Selectivity ratio [2] was 7 and the IC50 (Dihydrofolate reductase [5]) was > 23 µM. For the same molecule, the IC50 (Dihydrofolate reductase [9]) was 56.3 µM and the IC50 [7] was 8.1 µM.

Work on `Nc1nc(N)c2c(CNc3cccc4ccccc34)c[nH]c2n1` yielded a Selectivity ratio [1] of 0.2, a Selectivity ratio [2] of 53.9 and an IC50 (Dihydrofolate reductase [5]) of 307 µM. For the same molecule, the IC50 (Dihydrofolate reductase [9]) was 59.3 µM and the IC50 [7] was 1.1 µM.

Work on `Nc1nc(N)c2nc(CNc3ccc(C(=O)N[C@@H](CCC(=O)O)C(=O)O)cc3)cnc2n1` [AMINOPTERIN] yielded a Vmax [6] of 1.

For `COc1ccc(NCc2c[nH]c3nc(N)nc(N)c23)cc1`, the Selectivity ratio [1] was 0.23, the Selectivity ratio [2] was 10.5 and the IC50 (Dihydrofolate reductase [5]) was 279 µM. For the same molecule, the IC50 (Dihydrofolate reductase [9]) was 63 µM and the IC50 [7] was 6 µM.

Work on `CN(Cc1cnc2nc(N)nc(N)c2n1)c1ccc(C(=O)N[C@@H](CCC(=O)O)C(=O)O)cc1` [METHOTREXATE] yielded an EC50 (A253 cell line) of 0.017 µM and an EC50 (FaDu) of 0.031 µM.

In the case of `COc1ccc(OC)c(NCc2c[nH]c3nc(N)nc(N)c23)c1`, the Selectivity ratio [1] is reported as 3.4, the Selectivity ratio [2] is reported as 92 and the IC50 (Dihydrofolate reductase [9]) is reported as 156 µM. The IC50 [7] was 1.7 µM.

B1: Folylpolyglutamate synthase, mitochondrial (Homo sapiens), Q05932 (protein)
chain: MSRARSHLRAALFLAAASARGITTQVAARRGLSAWPVPQEPSMEYQDAVRMLNTLQTNAGYLEQVKRQRGDPQTQLEAMELYLARSGLQVEDLDRLNIIHVTGTKGKGSTCAFTECILRSYGLKTGFFSSPHLVQVRERIRINGQPISPELFTKYFWRLYHRLEETKDGSCVSMPPYFRFLTLMAFHVFLQEKVDLAVVEVGIGGAYDCTNIIRKPVVCGVSSLGIDHTSLLGDTVEKIAWQKGGIFKQGVPAFTVLQPEGPLAVLRDRAQQISCPLYLCPMLEALEEGGPPLTLGLEGEHQRSNAALALQLAHCWLQRQDRHGAGEPKASRPGLLWQLPLAPVFQPTSHMRLGLRNTEWPGRTQVLRRGPLTWYLDGAHTASSAQACVRWFRQALQGRERPSGGPEVRVLLFNATGDRDPAALLKLLQPCQFDYAVFCPNLTEVSSTGNADQQNFTVTLDQVLLRCLEHQQHWNHLDEEQASPDLWSAPSPEPGGSASLLLAPHPPHTCSASSLVFSCISHALQWISQGRDPIFQPPSPPKGLLTHPVAHSGASILREAAAIHVLVTGSLHLVGGVLKLLEPALSQ
In the case of B1, the Km [10] is reported as < 1 µM and the Km [11] is reported as 4.3 µM.

Reference: ChEMBL document CHEMBL1128397, “Novel 2,4-diamino-5-substituted-pyrrolo[2,3-d]pyrimidines as classical and nonclassical antifolate inhibitors of dihydrofolate reductases” (J Med Chem, 1995)
